The results in this text go back to article PMC8068036, “Synthesis of New Biscoumarin Derivatives, In Vitro Cholinesterase Inhibition, Molecular Modelling and Antiproliferative Effect in A549 Human Lung Carcinoma Cells” (International Journal of Molecular Sciences, 2021).

What all share (assay type): cell-based, human
The test system of assay [1] is A549 cells. Nature of the assay: Cell cycle analysis (flow cytometry, PI). The settings on record: 35 and 65 µM, 24 h. Here is the method: For flow cytometric analysis of the cell cycle distribution, floating and adherent cells were harvested together 24 h after treatment with the derivatives (35 and 65 µM), washed in cold PBS, fixed in cold 70% ethanol, and stored overnight at −20 °C. Prior to analysis, the cells were washed twice in PBS, resuspended in a staining solution (0.1% Triton X-100, 0.137 g L^−1 ribonuclease A and 0.02 g L^−1 propidium iodide—PI), and incubated in dark conditions at RT for 30 min. The DNA content was analyzed using a BD FACSCalibur flow cytometer (Becton Dickinson, San Jose, CA, USA) with a 488 nm argon-ion excitation laser, and fluorescence was detected using a 585/42 nm band-pass filter (FL-2). ModFit 3.0 software (Verity Software House, Topsham, ME, USA) was used to generate DNA content frequency histograms and to quantify the percentage of cells in the individual cell cycle phases. The results are presented as the average ratio of cells in the individual phase to all cells from three independent experiments.
For orientation: A flow cytometer gives signals particle by particle.

Assay [2] deals with A549 cells. Nature of the assay: Quantification of cell number and viability (eosin staining). The settings on record: 35 and 65 μM, 24 h, eosin negative cells. Here is the method: For the assessment of total cell numbers and viability within individual experimental groups, floating and adherent cells were harvested after treatment with the studied derivatives and evaluated using a Bürker chamber with eosin staining. A549 cells were plated at a density of 135 × 10^3 cell/well into a 6-well plate and treated with different concentrations of derivatives (35 and 65 µM) for 24 hrs. The total cell number was expressed as a percentage of the total cell number of the untreated control. Viability was expressed as a percentage of viable, eosin negative cells. The results are presented as the average percentage of cells from three independent experiments.

The test system of assay [3] is A549 cells. Nature of the assay: Colony-forming assay. The settings on record: 65 μM, 24 h treatment, 7 days cultivation, vs untreated control. Here is the method:
For the colony-forming assay, floating and adherent cells were harvested together 24 h after treatment with the studied derivatives (35 and 65 µM). The cells were then counted using a Bürker chamber with eosin staining, and 500 viable cells per well were seeded in 6-well plates. After 7 days of cultivation under standard conditions, the cells in the plates were fixed and stained with 1% methylene blue dye in methanol. Visualized colonies were scanned and counted, and the results were evaluated as percentages of the untreated control. The results are presented as the average percentage of colonies from three independent experiments.

Assay [4] deals with A549 cells. In words: Mitotic activity (Ki67 index) by immunolabelling and confocal microscopy. The settings on record: 24 h, control 90.6 ± 5.7%. Here is the method:
The studied biscoumarin derivatives were added to cells seeded on 12-well μ-Chamber slides for 24 h. After cultivation with the derivatives, the samples (both the control without the derivatives and experimental groups) were washed with a 0.1 M PBS solution buffer to remove all non-cell-absorbed derivative residues and fixed with 4% paraformaldehyde for 20 min at RT. Alternatively, cells were incubated with Mitotracker Red (0.5 µM; Thermo Fisher Scientific, Waltham, MA, USA) for 30 min at 37 °C, washed with 0.1 M PBS, and fixed with 4% paraformaldehyde for 20 min at RT. For the quantification of proliferative activity and programmed cell death, samples were incubated overnight at 4 °C with the mouse anti-Ki67 antibody (NCL-L-Ki67-MM1, 1:100, Leica Biosystems, Wetzlar, Germany) and rabbit anti-cleaved PARP (cat. no. 94885, 1:100, Cell Signaling, Danvers, MA, USA) diluted in 0.1 M PBS containing 1% normal donkey serum (Jackson Immunoresearch, Cambridgeshire, Great Britain) and 0.3% Triton-X 100. […]
All samples were evaluated using a Leica TCS SP5X confocal system (Leica Microsystems, Mannheim, Germany). The biscoumarin derivatives were visualized in cells using a 405 nm laser, and the fluorescence was captured in the range of 420–480 nm with identical exposure parameters for all samples. […] Microphotographs were taken with a 40× objective lens (NA = 0.75; voxel size 223 × 223 nm) and a 63× oil lens (NA = 1.4; voxel size 171 × 171 nm); the images were captured and analyzed using LAS AF software (Leica Microsystems, Wetzlar, Germany).
The proliferative activity of cells incubated with the studied derivatives was expressed as a Ki67 index. In all samples (n = 3 samples per each experimental group), the number of Ki67^+ nuclei was calculated in groups of 100 randomly selected cells. […]

Take `COC(=O)Cc1cc(=O)oc2cc(OCCCCCCCCN3CCN(CCNC(=O)Cc4cc(=O)oc5cc(O)ccc45)CC3)ccc12` [12e, Methyl 2-[7-({2-[4-(2-{[2-(7-hydroxy-2-oxo-2H-4-chromenyl)acetyl]amino}etyl)piperazino]oktyl}oxy)-2-oxo-2H-4-chromenyl]acetate]: the “Cell cycle distribution, G0/G1 phase (in words)” value in assay [1] was “increase in the percentage of the cell population in the G0/G1 phase”. Besides, the “Cell viability of A549 (in words)” value in assay [2] is “reduced cell viability at a concentration of 65 μM”. The “Reduction in relative number of colonies” value in assay [3] is reported as 20%. The “Number of proliferating cells (Ki67 index)” value in assay [4] (35 µM) turned out to be 59.4 ± 2.6%; in assay [4] (65 µM), 16.5 ± 12.9%.
